“And” between values parts separate entries of the source, which are not always exact repeats. Equal values may be shown once. Read-outs that look alike come from different tables or passages of the source.
Columns and labels:
CDK12–cyclin K and DDB1 = biological target: T1, CDK12–cyclin K and DDB1 (Homo sapiens, UniProt Q16531+Q9NYV4, K965R); experiment: TR-FRET ternary complex formation assay (compound titration); type: binding
T1 construct: His6–CDK12 (a.a. 713–1,052); full-length or beta-propeller B domain deletion (ΔBPB: a.a. 396–705 deleted) constructs of His6–DDB1ΔBPB, StrepII–Avi–DDB1, or His6–Spy–DDB1; made in house; host or cells: Trichoplusia ni High Five insect cells (baculovirus)
Procedure, shortened: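 Background fluorescence is reduced by reading 70 μs after excitation, and complex formation is followed as the 520:490 nm fluorescence ratio.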

CDK2–cyclin A = biological target: T2, CDK2–cyclin A (Homo sapiens, UniProt P24941); experiment: Lanthascreen kinase binding assay, CDK2
T2 construct: purchased Thermo Fisher
Method: Lanthascreen experiments were performed using commercially available reagents (Thermo Fisher) and according to the manufacturer’s instructions.

[1] = test system: cyclin K–eGFP degradation reporter; experiment: Cyclin K reporter stability analysis (dual-color cyclin K–eGFP reporter); type: cell-based, human
Procedure, shortened: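 Values reflect cyclin K–eGFP levels after a 5 h exposure, expressed as the green-to-red fluorescence ratio and scaled to three vehicle-treated controls. Measurements came from HEK293T–Cas9 reporter cells by flow cytometry.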

T1 sequence (Q9NYV4 713-1052 K965R): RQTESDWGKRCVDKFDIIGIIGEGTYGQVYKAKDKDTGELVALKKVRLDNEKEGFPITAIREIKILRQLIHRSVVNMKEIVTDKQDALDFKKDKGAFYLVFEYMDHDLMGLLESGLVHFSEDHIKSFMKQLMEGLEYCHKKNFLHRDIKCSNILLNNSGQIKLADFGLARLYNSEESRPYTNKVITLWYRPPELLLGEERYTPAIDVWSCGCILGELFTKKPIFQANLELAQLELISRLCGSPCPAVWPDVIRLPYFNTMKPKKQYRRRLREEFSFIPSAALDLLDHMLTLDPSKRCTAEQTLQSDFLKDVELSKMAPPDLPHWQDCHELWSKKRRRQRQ
T1 sequence (O75909 1-267 partner): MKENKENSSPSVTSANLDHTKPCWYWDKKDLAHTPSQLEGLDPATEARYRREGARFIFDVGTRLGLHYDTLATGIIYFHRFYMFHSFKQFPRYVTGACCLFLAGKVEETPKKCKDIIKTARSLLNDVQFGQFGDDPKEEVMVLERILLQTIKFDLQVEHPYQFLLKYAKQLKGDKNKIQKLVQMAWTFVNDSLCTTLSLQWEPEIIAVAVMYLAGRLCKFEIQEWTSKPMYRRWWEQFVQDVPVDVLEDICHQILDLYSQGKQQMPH
T1 sequence (Q16531 whole entry): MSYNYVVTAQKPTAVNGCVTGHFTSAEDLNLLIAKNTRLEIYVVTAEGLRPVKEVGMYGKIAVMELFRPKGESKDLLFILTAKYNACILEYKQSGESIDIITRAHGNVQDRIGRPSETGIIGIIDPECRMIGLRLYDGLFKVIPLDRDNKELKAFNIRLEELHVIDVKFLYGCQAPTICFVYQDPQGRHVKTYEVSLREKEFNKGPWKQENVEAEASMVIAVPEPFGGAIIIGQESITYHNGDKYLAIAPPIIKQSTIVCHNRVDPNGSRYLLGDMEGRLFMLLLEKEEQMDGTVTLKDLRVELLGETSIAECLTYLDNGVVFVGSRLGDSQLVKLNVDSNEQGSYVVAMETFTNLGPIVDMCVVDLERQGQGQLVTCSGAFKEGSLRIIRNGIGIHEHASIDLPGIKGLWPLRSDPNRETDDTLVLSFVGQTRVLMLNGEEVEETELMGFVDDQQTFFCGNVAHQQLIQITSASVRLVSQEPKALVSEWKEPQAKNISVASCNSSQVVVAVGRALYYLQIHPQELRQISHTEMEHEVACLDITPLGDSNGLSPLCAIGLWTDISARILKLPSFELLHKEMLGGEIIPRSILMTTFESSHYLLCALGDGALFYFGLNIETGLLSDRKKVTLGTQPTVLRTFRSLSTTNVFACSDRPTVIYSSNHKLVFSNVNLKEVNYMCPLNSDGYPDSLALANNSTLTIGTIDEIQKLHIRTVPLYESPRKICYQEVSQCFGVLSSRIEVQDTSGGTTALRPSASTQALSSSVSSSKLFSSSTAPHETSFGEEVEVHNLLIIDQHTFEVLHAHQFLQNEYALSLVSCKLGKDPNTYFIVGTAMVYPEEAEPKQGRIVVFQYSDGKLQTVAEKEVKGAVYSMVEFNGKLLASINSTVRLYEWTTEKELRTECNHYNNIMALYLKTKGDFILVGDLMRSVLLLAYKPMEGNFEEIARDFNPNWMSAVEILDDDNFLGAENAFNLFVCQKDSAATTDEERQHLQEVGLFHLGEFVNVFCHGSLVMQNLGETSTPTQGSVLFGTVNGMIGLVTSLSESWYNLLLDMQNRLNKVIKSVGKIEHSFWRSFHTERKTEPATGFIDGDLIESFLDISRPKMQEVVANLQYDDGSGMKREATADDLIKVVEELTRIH

- Lanthascreen signal, sheet CDK2 (CDK2–cyclin A; Compound 0.038147 nM, raw replicates, experiment r13-r23): 0.0127 and 0.01284
- Lanthascreen signal, sheet CDK2 (CDK2–cyclin A; Compound 0.038147 nM, raw replicates, experiment r36-r46): 0.01329 and 0.01256
- Lanthascreen signal, sheet CDK2 (CDK2–cyclin A; Compound 0.038147 nM, raw replicates, experiment r48-r58): 0.01292 and 0.01236
- Lanthascreen signal, sheet CDK2 (CDK2–cyclin A; Compound 0.152588 nM, raw replicates, experiment r13-r23): 0.01305 and 0.01264
- Lanthascreen signal, sheet CDK2 (CDK2–cyclin A; Compound 0.152588 nM, raw replicates, experiment r36-r46): 0.01299 and 0.01282
- Lanthascreen signal, sheet CDK2 (CDK2–cyclin A; Compound 0.152588 nM, raw replicates, experiment r48-r58): 0.01645 and 0.0151
- Lanthascreen signal, sheet CDK2 (CDK2–cyclin A; Compound 0.610352 nM, raw replicates, experiment r13-r23): 0.01296 and 0.01232
- Lanthascreen signal, sheet CDK2 (CDK2–cyclin A; Compound 0.610352 nM, raw replicates, experiment r36-r46): 0.01373 and 0.01242
- Lanthascreen signal, sheet CDK2 (CDK2–cyclin A; Compound 0.610352 nM, raw replicates, experiment r48-r58): 0.01563 and 0.01504
- Lanthascreen signal, sheet CDK2 (CDK2–cyclin A; Compound 1.02544 nM, raw replicates, experiment r1-r11): 0.01131 and 0.01009
- Lanthascreen signal, sheet CDK2 (CDK2–cyclin A; Compound 3.15521 nM, raw replicates, experiment r1-r11): 0.009228 and 0.009357
- Lanthascreen signal, sheet CDK2 (CDK2–cyclin A; Compound 4.57247 nM, experiment r25-r34): 0.01614
- Lanthascreen signal, sheet CDK2 (CDK2–cyclin A; Compound 9.76563 nM, raw replicates, experiment r13-r23): 0.01326 and 0.01312
- Lanthascreen signal, sheet CDK2 (CDK2–cyclin A; Compound 9.76563 nM, raw replicates, experiment r36-r46): 0.01252 and 0.01318
- Lanthascreen signal, sheet CDK2 (CDK2–cyclin A; Compound 9.76563 nM, raw replicates, experiment r48-r58): 0.01463 and 0.01476
- Lanthascreen signal, sheet CDK2 (CDK2–cyclin A; Compound 9.76563 nM, raw replicates, experiment r60-r70): 0.02088 and 0.02079 and 0.02078
- Lanthascreen signal, sheet CDK2 (CDK2–cyclin A; Compound 13.7174 nM, experiment r25-r34): 0.01619
- Lanthascreen signal, sheet CDK2 (CDK2–cyclin A; Compound 39.0625 nM, raw replicates, experiment r13-r23): 0.01273 and 0.01299
- Lanthascreen signal, sheet CDK2 (CDK2–cyclin A; Compound 39.0625 nM, raw replicates, experiment r36-r46): 0.01285 and 0.01213
- Lanthascreen signal, sheet CDK2 (CDK2–cyclin A; Compound 39.0625 nM, raw replicates, experiment r48-r58): 0.01551 and 0.01552
- Lanthascreen signal, sheet CDK2 (CDK2–cyclin A; Compound 39.0625 nM, raw replicates, experiment r60-r70): 0.01951 and 0.02081 and 0.02075
- Lanthascreen signal, sheet CDK2 (CDK2–cyclin A; Compound 41.1523 nM, experiment r25-r34): 0.01684
- Lanthascreen signal, sheet CDK2 (CDK2–cyclin A; Compound 123.457 nM, experiment r25-r34): 0.01665
- Lanthascreen signal, sheet CDK2 (CDK2–cyclin A; Compound 156.25 nM, raw replicates, experiment r13-r23): 0.01317 and 0.01374
- Lanthascreen signal, sheet CDK2 (CDK2–cyclin A; Compound 156.25 nM, raw replicates, experiment r36-r46): 0.01372 and 0.0133
- Lanthascreen signal, sheet CDK2 (CDK2–cyclin A; Compound 156.25 nM, raw replicates, experiment r48-r58): 0.01549 and 0.01505
- Lanthascreen signal, sheet CDK2 (CDK2–cyclin A; Compound 156.25 nM, raw replicates, experiment r60-r70): 0.01961 and 0.02092 and 0.0201
- Lanthascreen signal, sheet CDK2 (CDK2–cyclin A; Compound 370.37 nM, experiment r25-r34): 0.01637
- Lanthascreen signal, sheet CDK2 (CDK2–cyclin A; Compound 625 nM, raw replicates, experiment r13-r23): 0.0132 and 0.01347
- Lanthascreen signal, sheet CDK2 (CDK2–cyclin A; Compound 625 nM, raw replicates, experiment r36-r46): 0.01352 and 0.01293
- Lanthascreen signal, sheet CDK2 (CDK2–cyclin A; Compound 625 nM, raw replicates, experiment r48-r58): 0.01526 and 0.01348
- Lanthascreen signal, sheet CDK2 (CDK2–cyclin A; Compound 625 nM, raw replicates, experiment r60-r70): 0.01884 and 0.01787 and 0.01937
- Lanthascreen signal, sheet CDK2 (CDK2–cyclin A; Compound 2500 nM, raw replicates, experiment r13-r23): 0.01229 and 0.01217
- Lanthascreen signal, sheet CDK2 (CDK2–cyclin A; Compound 2500 nM, raw replicates, experiment r36-r46): 0.01331 and 0.01286
- Lanthascreen signal, sheet CDK2 (CDK2–cyclin A; Compound 2500 nM, raw replicates, experiment r48-r58): 0.01476 and 0.01465
- Lanthascreen signal, sheet CDK2 (CDK2–cyclin A; Compound 2500 nM, raw replicates, experiment r60-r70): 0.01706 and 0.01739 and 0.01756
- Lanthascreen signal, sheet CDK2 (CDK2–cyclin A; Compound 3155.21 nM, raw replicates, experiment r1-r11): 0.009677 and 0.009716
- Lanthascreen signal, sheet CDK2 (CDK2–cyclin A; Compound 3333.33 nM, experiment r25-r34): 0.01493
- Lanthascreen signal, sheet CDK2 (CDK2–cyclin A; Compound 10000 nM, experiment r25-r34): 0.01253
- Lanthascreen signal, sheet CDK2 (CDK2–cyclin A; Compound 10000 nM, raw replicates, experiment r13-r23): 0.01083 and 0.01088
- Lanthascreen signal, sheet CDK2 (CDK2–cyclin A; Compound 10000 nM, raw replicates, experiment r36-r46): 0.01118 and 0.01139
- Lanthascreen signal, sheet CDK2 (CDK2–cyclin A; Compound 10000 nM, raw replicates, experiment r48-r58): 0.01493 and 0.01454
- Lanthascreen signal, sheet CDK2 (CDK2–cyclin A; Compound 10000 nM, raw replicates, experiment r60-r70): 0.01597 and 0.01433 and 0.01526
- Lanthascreen signal, sheet CDK2 (CDK2–cyclin A; Compound 10002 nM, raw replicates, experiment r1-r11): 0.009692 and 0.009444
- IC50 (CDK2–cyclin A; Lanthascreen, average, Extended Data Fig. 8, read-out: CDK2 IC50): > 10000 nM
- IC50 (CDK2–cyclin A; Supplementary Table 2, read-out: Lanthascreen IC50 [nM] CDK2): > 10000 nM
- DC50 ([1]; Supplementary Fig. 4, HEK293T cycKeGFP reporter, 5h, n=2, read-out: DC50 printed on reporter plot): 39 nM
- DC50 ([1]; source data sheet correlations, read-out: DC50): 14 nM
SMILES: Cn1cc(-n2cnc3c(NCc4nc5cc(Cl)c(Cl)cc5[nH]4)nc(N4CCOCC4)nc32)cn1 [SR-4835]
- TR-FRET signal (CDK12–cyclin K and DDB1; compound concentration 0.468 nM): 0.24 and 0.2487 and 0.176 and 0.1833 and 0.1905 and 0.1902
- TR-FRET signal at compound concentration 0.468 nM (CDK12–cyclin K and DDB1; compound concentration 0.468 nM, raw replicate titration data): 0.24 and 0.2487 and 0.176 and 0.1833 and 0.1905 and 0.1902
- TR-FRET signal (CDK12–cyclin K and DDB1; compound concentration 2.16 nM): 0.2823 and 0.3111 and 0.2192 and 0.2275 and 0.225 and 0.234
- TR-FRET signal at compound concentration 2.16 nM (CDK12–cyclin K and DDB1; compound concentration 2.16 nM, raw replicate titration data): 0.2823 and 0.3111 and 0.2192 and 0.2275 and 0.225 and 0.234
- TR-FRET signal (CDK12–cyclin K and DDB1; compound concentration 3.6 nM): 0.3779 and 0.4354 and 0.3063 and 0.3176 and 0.3203 and 0.3168
- TR-FRET signal at compound concentration 3.6 nM (CDK12–cyclin K and DDB1; compound concentration 3.6 nM, raw replicate titration data): 0.3779 and 0.4354 and 0.3063 and 0.3176 and 0.3203 and 0.3168
- TR-FRET signal (CDK12–cyclin K and DDB1; compound concentration 7.92001 nM): 0.6106 and 0.7496 and 0.4912 and 0.5419 and 0.5567 and 0.5439
- TR-FRET signal at compound concentration 7.92001 nM (CDK12–cyclin K and DDB1; compound concentration 7.92001 nM, raw replicate titration data): 0.6106 and 0.7496 and 0.4912 and 0.5419 and 0.5567 and 0.5439
- TR-FRET signal (CDK12–cyclin K and DDB1; compound concentration 15.84 nM): 1.0796 and 1.304 and 0.9239 and 1.0376 and 1.022 and 1.028
- TR-FRET signal at compound concentration 15.84 nM (CDK12–cyclin K and DDB1; compound concentration 15.84 nM, raw replicate titration data): 1.0796 and 1.304 and 0.9239 and 1.0376 and 1.022 and 1.028
- TR-FRET signal (CDK12–cyclin K and DDB1; compound concentration 30.96 nM): 1.682 and 1.792 and 1.613 and 1.69 and 1.622 and 1.648
- TR-FRET signal at compound concentration 30.96 nM (CDK12–cyclin K and DDB1; compound concentration 30.96 nM, raw replicate titration data): 1.682 and 1.792 and 1.613 and 1.69 and 1.622 and 1.648
- TR-FRET signal (CDK12–cyclin K and DDB1; compound concentration 62.6401 nM): 1.888 and 1.962 and 1.877 and 1.886 and 1.857 and 1.865
- TR-FRET signal at compound concentration 62.6401 nM (CDK12–cyclin K and DDB1; compound concentration 62.6401 nM, raw replicate titration data): 1.888 and 1.962 and 1.877 and 1.886 and 1.857 and 1.865
- TR-FRET signal (CDK12–cyclin K and DDB1; compound concentration 125.28 nM): 1.977 and 2.1 and 1.914 and 1.988 and 1.925 and 1.931
- TR-FRET signal at compound concentration 125.28 nM (CDK12–cyclin K and DDB1; compound concentration 125.28 nM, raw replicate titration data): 1.977 and 2.1 and 1.914 and 1.988 and 1.925 and 1.931
- TR-FRET signal (CDK12–cyclin K and DDB1; compound concentration 244.8 nM): 2.037 and 2.154 and 1.951 and 1.963 and 1.955 and 1.942
- TR-FRET signal at compound concentration 244.8 nM (CDK12–cyclin K and DDB1; compound concentration 244.8 nM, raw replicate titration data): 2.037 and 2.154 and 1.951 and 1.963 and 1.955 and 1.942
- TR-FRET signal (CDK12–cyclin K and DDB1; compound concentration 993.601 nM): 2.0169 and 2.142 and 1.9225 and 1.946 and 1.977 and 1.949
- TR-FRET signal at compound concentration 993.601 nM (CDK12–cyclin K and DDB1; compound concentration 993.601 nM, raw replicate titration data): 2.0169 and 2.142 and 1.9225 and 1.946 and 1.977 and 1.949
- TR-FRET signal (CDK12–cyclin K and DDB1; compound concentration 2001.6 nM): 2.032 and 2.062 and 1.95 and 1.938 and 1.928 and 1.943
- TR-FRET signal at compound concentration 2001.6 nM (CDK12–cyclin K and DDB1; compound concentration 2001.6 nM, raw replicate titration data): 2.032 and 2.062 and 1.95 and 1.938 and 1.928 and 1.943

Reference: PMC10746543, “Design principles for cyclin K molecular glue degraders” (Nature Chemical Biology, 2023)
